{
  "source": "patent US8900549B2",
  "about": "“Compositions and methods for delivering a substance to a biological target” (The General Hospital Corporation, priority 2008, dated 2014)",
  "key": {"[1]": {"system": "trans-cyclooctene bound to antibody", "assay": "Kinetic measurements of tetrazine cycloaddition to surface-absorbed trans-cyclooctene modified antibody", "assay_type": "physicochemical", "settings": "PBS at 37° C.; 375, 750 and 1000 nM tetrazine; slope of pseudo first order rate constants versus concentration", "experimental": "trans-cyclooctene modified antibody was physically absorbed onto polystyrene by immersing the surfaces in a 0.1 mg/mL solution of antibody in PBS for 3 hours. After numerous washes with PBS, the surface was exposed to 750 nM tetrazine VT680 in PBS at 37° C. After 5 minutes, the tetrazine solution was removed and the surface washed 3 times with PBS. The fluorescence due to the VT680 dye was measured on a fluorescence plate reader (Tecan Safire 2) and corrected for background fluorescence. The surface was again exposed to the tetrazine solution and the entire process repeated at 10, 15, 30, and 60 minutes. The fluorescence measurements were plotted versus time, fitted to a first order exponential growth curve and the pseudo first order rate constant determined The entire experiment was repeated using two different concentrations of tetrazine (375 nM and 1000 nM) and the pseudo first order rate constants from all three experiments were plotted versus concentration, fitted to a straight line; the slope of the line was 6000±200 M−1sec−1 and was reported at the second order rate constant for the reaction between tetrazine VT680 and trans-cyclooctene bound to antibody."}, "EGFR on A549 cells": {"system": "EGFR on A549 cells", "assay": "Pretargeted live cell labeling with trans-cyclooctene cetuximab and tetrazine-VT680, confocal microscopy", "assay_type": "cell-based, human", "quoted_text": "The human lung adenocarcinoma epithelial cell line A549 was selected for all experiments due to its mid-level over-expression of EGFR. The cell line was maintained in a standard ATCC formulated F-12K media supplemented with 10% fetal bovine serum and 5% penicillin/streptomycin.\nCells were grown on break away glass chamber slides and washed six times after administering either imaging agent. A multichannel upright laser-scanning confocal microscope (FV1000; Olympus) was used to image live cells with a 60× water immersion objective lens. Image collection and fluorophore excitations with lasers at 488 nm (EGFP), 543 nm (AF555), and 633 nm (VT680) were done serially to avoid cross talk between channels. Data were acquired with Fluoview software (version 4.3; Olympus) and image stacks were processed and analyzed with ImageJ software (version 1.41, Bethesda Md.).\nDirect labeling of the antibodies with AF555 was monitored in the red channel."}, "PtK2 rat kidney cells": {"system": "PtK2 rat kidney cells", "assay": "Live cell labeling and confocal imaging of trans-cyclooctene taxol with tetrazine probes", "assay_type": "cell-based, rat kangaroo", "settings": "for staining of intracellular structures by confocal microscopy: 1 μM trans-cyclooctene taxol 1 hour 37° C., wash, then 1 μM tetrazine probe 20 minutes room temperature", "experimental": "For live cell studies, PtK2 […] cells were incubated in cell media containing 1 μM trans-cyclooctene taxol for 1 hour at 37° C. After washing with media three times, the cells were exposed to media containing 1 μM tetrazine-BODIPY FL for 20 minutes at room temperature. The cells were then washed and imaged on a confocal microscope. […] Taxol® is known to bind the microtubular networks of cells and there have been several reports of fluorescent taxol derivatives that can be used to image microtubular networks (Evangelio et al., 1998, Cell Motil Cytoskeleton, 39, 73-90; Guy et al., 1996, Chem Biol, 3, 1021-31; Souto et al., 1995, Angew. Chem. Int. Ed., 34, 2710-2712). In addition to tubular structures, the perinuclear region was stained. This staining is due to nonspecific uptake of the taxol analog by intracellular membranes such as the endoplasmic reticulum and Golgi."}, "[2]": {"system": "Her2/neu growth factor receptors on SKBR-3 human mammary carcinoma cells", "assay": "Live cell labeling with norbornene-modified trastuzumab and tetrazine-VT680, fluorescence microscopy", "assay_type": "cell-based", "excerpt": "Norbornene carboxylic acid ((1S,2S,4S)-bicyclo[2.2.1]hept-5-en-2-yl acetic acid) was stirred for three hours with 1.1 equivalents of disuccinimidyl carbonate in acetontrile using 1 equivalent of pyridine as base. After reaction, solvent and base were removed by rotary evaporation and the crude norbornene succinimidyl ester with N-hydroxysuccinimide side product was recovered. Commercially purchased humanized anti-HER2/neu antibody trastuzumab (Genentech, San Francisco, Calif.) in 0.1M sodium bicarbonate buffer (pH 8.2) was incubated for three hours at room temperature with a 5 molar excess of 5-(and-6)-carboxytetramethylrhodamine, succinimidyl ester (Invitrogen) and a 30 molar excess of crude norbornene succinimidyl ester. The antibody was then isolated and washed by centrifuge purification and stored in PBS buffer. Control antibody was modified in an identical manner but excluding the norbornene NHS.\nSKBR-3 human mammary carcinoma cell lines were maintained in complete McCoy's medium. Cells were incubated at 37° C. with 200 nM modified trastuzumab for 30 minutes and then washed twice with 10% fetal bovine serum (FBS) in Hanks balanced salt solution (HBSS). Tetrazine labeling was performed by incubating the cells for 30 minutes at 37° C. in 10% FBS/HBSS containing 50 μM of tetrazine-VT680. Cells were then washed twice with 10% FBS/HBSS and imaged with by fluorescence microscopy."}, "tubulin": {"system": "tubulin", "assay": "Tubulin polymerization assay in the absence of GTP (optical density at 350 nm)", "assay_type": "biochemical", "settings": "tubulin monomer, versus DMSO control", "excerpt": "To test the activity of the trans-cyclooctene taxol analog, we tested for the well known ability of Taxol® to polymerize tubulin in the absence of GTP (Shelanski et al., 1973, Proc Natl Acad Sci USA, 70, 765-8; Schiff and Horwitz, 1981, Biochemistry, 20, 3247-52). Optical density measurements at 350 nm (FIG. 6B) were used to determine the degree of tubulin polymerization after exposure of tubulin monomer to Taxol®, trans-cyclooctene taxol, and a DMSO control. […] Taxol trans-cyclooctene induced tubule bundles could be visualized by subsequent staining with tetrazine fluorophore probes such as tetrazine-BODIPY FL yielding brightly fluorescent tubule structures that could be imaged by fluorescent microscopy (FIG. 6c)."}},
  "data": [
    {"compound": "3-(p-Benzylamino)-tetrazine-VT680 Conjugate", "values": [
      {"measurement": "second order rate constant", "setting": "[1]", "value": "6000 ± 200", "unit": "M⁻¹ s⁻¹"},
      {"measurement": "colocalization of NIR (VT680) signal with AF555-labeled antibody", "setting": "EGFR on A549 cells; A549 cells pretargeted with AF555-labeled trans-cyclooctene cetuximab, then tetrazine-VT680", "value": "excellent colocalization of the AF555 and VT680 signals with little background fluorescence"},
      {"measurement": "NIR fluorescence in control experiments", "setting": "EGFR on A549 cells; unlabeled cetuximab and tetrazine-VT680, or trans-cyclooctene-cetuximab and unlabeled VT680", "value": "no NIR fluorescence"},
      {"measurement": "staining of intracellular structures by confocal microscopy", "setting": "PtK2 rat kidney cells", "value": "showed intracellular structures reflecting microtubule networks"},
      {"measurement": "staining of intracellular structures by confocal microscopy", "setting": "PtK2 rat kidney cells; listed as sulfonated Vivo-Tag 680 tetrazine", "value": "very little staining and an absence of tubular structures"}
    ]},
    {"compound": "5-(4-(1,2,4,5-Tetrazin-3-yl)benzylamino)-5-oxopentanoic Acid [Example 3]", "values": [
      {"measurement": "labeling of cells in rhodamine and NIR fluorescence channels", "setting": "[2]; 200 nM norbornene- and rhodamine-modified trastuzumab 30 minutes, then 50 μM tetrazine-VT680 30 minutes 37° C. in 10% FBS/HBSS", "value": "Significant labeling, which colocalizes"},
      {"measurement": "NIR labeling with control antibody", "setting": "[2]; control antibody containing rhodamine but not norbornene", "value": "no NIR labeling"}
    ]},
    {"compound": "CC(=O)O[C@H]1C(=O)[C@@]2(C)[C@H]([C@H](OC(=O)c3ccccc3)[C@]3(O)C[C@H](OC(=O)[C@H](O)[C@@H](NC(=O)c4ccccc4)c4ccccc4)C(C)=C1C3(C)C)[C@]1(OC(C)=O)CO[C@@H]1C[C@@H]2O", "note": "[Taxol®, paclitaxel, reference compound]", "values": [
      {"measurement": "degree of tubulin polymerization (optical density at 350 nm)", "setting": "tubulin", "value": "induced polymerization"}
    ]},
    {"compound": "Cc1cc(C)n2c1C=C1C=CC(CCC(=O)NCc3ccc(-c4nncnn4)cc3)=[N+]1[B-]2(F)F", "note": "[tetrazine-BODIPY FL]", "values": [
      {"measurement": "staining of intracellular structures by confocal microscopy", "setting": "PtK2 rat kidney cells", "value": "tubular structures were clearly stained"},
      {"measurement": "fluorescent background in control experiments", "setting": "PtK2 rat kidney cells; tetrazine-BODIPY FL alone or with unmodified taxol", "value": "minimal fluorescent background"}
    ]},
    {"compound": "CC(=O)OC1C(=O)C2(C)C(OC(=O)CCNC(=O)OC3CCC=CCCC3)CC3OCC3(OC(C)=O)C2C(OC(=O)c2ccccc2)C2(O)CC(OC(=O)C(O)C(NC(=O)c3ccccc3)c3ccccc3)C(C)=C1C2(C)C", "note": "(stereo not drawn) [trans-cyclooctene taxol]", "values": [
      {"measurement": "degree of tubulin polymerization (optical density at 350 nm)", "setting": "tubulin", "value": "induced polymerization"},
      {"measurement": "staining of intracellular structures by confocal microscopy", "setting": "PtK2 rat kidney cells", "value": "tubular structures were clearly stained"}
    ]}
  ]
}
